The record followed here is ChEMBL document CHEMBL4602687, “Dual Binding to Orthosteric and Allosteric Sites Enhances the Anticancer Activity of a TRAP1-Targeting Drug” (J Med Chem, 2020).

The test system of assay [1] is T1, Heat shock protein 75 kDa, mitochondrial (Homo sapiens), Q12931 [E403K].
T1 sequence (whole entry): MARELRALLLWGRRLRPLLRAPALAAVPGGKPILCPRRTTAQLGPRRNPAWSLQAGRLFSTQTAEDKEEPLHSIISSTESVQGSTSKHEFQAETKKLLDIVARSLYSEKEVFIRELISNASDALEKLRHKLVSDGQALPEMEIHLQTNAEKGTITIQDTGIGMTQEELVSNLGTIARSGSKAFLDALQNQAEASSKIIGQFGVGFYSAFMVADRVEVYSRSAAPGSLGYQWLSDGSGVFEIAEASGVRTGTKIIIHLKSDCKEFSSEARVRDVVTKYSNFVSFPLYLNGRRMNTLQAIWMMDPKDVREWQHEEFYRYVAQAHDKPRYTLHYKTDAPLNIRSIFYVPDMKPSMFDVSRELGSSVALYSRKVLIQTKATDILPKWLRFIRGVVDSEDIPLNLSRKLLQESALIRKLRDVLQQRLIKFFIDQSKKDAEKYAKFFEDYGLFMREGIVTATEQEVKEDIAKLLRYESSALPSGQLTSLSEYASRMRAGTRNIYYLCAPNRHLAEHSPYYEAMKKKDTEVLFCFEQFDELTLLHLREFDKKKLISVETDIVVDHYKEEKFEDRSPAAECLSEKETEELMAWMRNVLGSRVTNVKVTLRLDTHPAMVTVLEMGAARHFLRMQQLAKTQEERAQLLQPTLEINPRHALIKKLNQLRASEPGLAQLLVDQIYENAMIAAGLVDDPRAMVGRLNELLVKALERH
Nature of the assay: Inhibition of recombinant wild-type human TRAP1 E403K mutant ATPase activity expressed in Escherichia coli BL21 (DE3) up to 20 uM preincubated for 0.5 hrs followed by ATP addition and measured after 3 hrs by PiColorLock Gold reagent based colorimetric assay.

For assay [2], the target named is T2, Heat shock protein 75 kDa, mitochondrial (Homo sapiens) (UniProt Q12931).
T2 sequence (whole entry): T1 sequence (whole entry) with K403E
Nature of the assay: Stimulation of recombinant wild-type human TRAP1 ATPase activity expressed in Escherichia coli BL21 (DE3) at 2 to 5 uM preincubated for 0.5 hrs followed by 2 mM ATP addition and measured after 3 hrs by PiColorLock Gold reagent based colorimetric assay relative to control.

A further assay deals with Mus musculus. Briefly: In vivo inhibition of TRAP1 in nude mouse xenografted with human NCI-H460 cells assessed as increase in CHOP expression at 5 mg/kg, ip administered daily by Western blot analysis. It counts as functional, organism-based.
The target in assay [3] is T2, Heat shock protein 75 kDa, mitochondrial (Homo sapiens). Briefly: Inhibition of TRAP1 in human PC3 cells assessed as increase in AMPK phosphorylation at 5 uM measured after 2 to 12 hrs by Western blot analysis. The assay is classed as cell-based. The settings on record: PC-3.
For a further assay, the system named is NCI-H460. Briefly: Antitumor activity against human NCI-H460 cells xenografted in nude mouse assessed as induction of tumor cell death by measuring increase in cleaved caspase-3 expression at 5 mg/kg, ip administered daily by Western blot analysis. The assay is classed as functional, organism-based. A general note: A xenograft is tissue or cells of one species grown in another, often human tumour cells in immunodeficient mice.

Assay [4] deals with T3, Heat shock protein 75 kDa, mitochondrial (Homo sapiens), Q12931 [R402Q].
T3 sequence (whole entry): T1 sequence (whole entry) with R402Q, K403E
Nature of the assay: Stimulation of recombinant […] human TRAP1 R402Q mutant ATPase activity expressed in Escherichia coli BL21 (DE3) up to 20 uM preincubated for 0.5 hrs followed by ATP addition and measured after 3 hrs by PiColorLock Gold reagent based colorimetric assay.

For assay [5], the target named is T2, Heat shock protein 75 kDa, mitochondrial (Homo sapiens). Briefly: Inhibition of TRAP1 in human PC3 cells assessed as reduction in SIRT3 expression at 5 uM measured after 2 to 12 hrs by Western blot analysis. The settings on record: PC-3. The assay is classed as cell-based. In general terms: Immunoblotting shows a protein as a band on a membrane.

The structures appear in SMILES notation. Substitutions are numbered along the chain they refer to. The source made the active and inactive calls. No cut-off for these calls is given here.

For `Nc1ncnc2c1nc(Sc1cc3c(cc1I)OCO3)n2CCCCCCCCCC[P+](c1ccccc1)(c1ccccc1)c1ccccc1`, the inhibition entry (in assay [1]; with Mus musculus; in assay [3]; in assay [5]) was “Active” throughout. Besides, the fold change (FC) in assay [2] stood at 2. For the same compound, the outcome (in the assay on NCI-H460; in assay [4]) was Active.
